From patent publication US11279714B2, “Anti-infective compounds” (priority 2014, dated 2022) come the findings set out here.

Holding throughout (format): cell-based, Mycobacterium
What all share (conditions): REMA, 1 week + 1 day resazurin; relative to H37Rv
A general note: Alamar Blue is a resazurin reagent that responds to reducing activity.

The test system of assay [1] is MDR-33 (clinical isolate of multidrug-resistance tuberculosis).
Assay [2] deals with MDR-137 (clinical isolate of multidrug-resistance tuberculosis).
In assay [3] the test system is MDR-146 (clinical isolate of multidrug-resistance tuberculosis).

`Cc1nc2cc(NC(=O)c3cc4sc(N5CCOCC5)nc4s3)ccc2o1` [Compound 83]: in assay [1], the “Antibacterial activity MDR-33” value is “+++ (+++ indicates <2 times of MIC50 on wild type strain (H37Rv))”. The “Antibacterial activity MDR-137” value in assay [2] is recorded as “+++ (+++ indicates <2 times of MIC50 on wild type strain (H37Rv))”. The “Antibacterial activity MDR-146” value in assay [3] was “+++ (+++ indicates <2 times of MIC50 on wild type strain (H37Rv))”.

Regarding `COc1ccc(NC(=O)c2cc3sc(N4CCC(C(=O)N(C)C)CC4)nc3s2)cc1` [Compound 127], the “Antibacterial activity MDR-33” value in assay [1] is “+++ (+++ indicates <2 times of MIC50 on wild type strain (H37Rv))”. For the same molecule, in assay [2], the “Antibacterial activity MDR-137” value is “+++ (+++ indicates <2 times of MIC50 on wild type strain (H37Rv))”. In addition, the “Antibacterial activity MDR-146” value in assay [3] is recorded as “+++ (+++ indicates <2 times of MIC50 on wild type strain (H37Rv))”.

Regarding `Cc1nc2cc(NC(=O)c3cc4sc(N5CCC(CO)CC5)nc4s3)ccc2o1` [Compound 144], the “Antibacterial activity MDR-33” value in assay [1] is listed as “+++ (+++ indicates <2 times of MIC50 on wild type strain (H37Rv))”. In addition, in assay [2], the “Antibacterial activity MDR-137” value is listed as “+++ (+++ indicates <2 times of MIC50 on wild type strain (H37Rv))”. In addition, in assay [3], the “Antibacterial activity MDR-146” value is “+++ (+++ indicates <2 times of MIC50 on wild type strain (H37Rv))”.

Consider `COCCN(C)c1nc2sc(C(=O)Nc3ccc4oc(C)nc4c3)cc2s1` [Compound 202], for which, in assay [1], the “Antibacterial activity MDR-33” value is given as “+++ (+++ indicates <2 times of MIC50 on wild type strain (H37Rv))”. Further, in assay [2], the “Antibacterial activity MDR-137” value is listed as “+++ (+++ indicates <2 times of MIC50 on wild type strain (H37Rv))”. The “Antibacterial activity MDR-146” value in assay [3] is “+++ (+++ indicates <2 times of MIC50 on wild type strain (H37Rv))”.
